According to patent publication US20250177448A1, “NEW USE OF PEG-PHOSPHOLIPID MOLECULES” (ICOAT MEDICAL AB, priority 2022, published 2025):
“Also recorded” adds a separate entry of the source.

What was measured:
blood group B antigen = experiment: Anti-blood group B antigen antibody binding to coated human erythrocytes, flow cytometry; type: cell-based; conditions: blood type B RBCs, 2 mg/ml in PBS, 30 min room temperature
Method: Human erythrocytes were isolated from healthy human donors. They were pre-selected for specific blood types and only individuals exposing blood type B antigens were used. Human blood was drawn from the donors using a vacuum blood collection tube (5 mL, EDTA-2Na treated, TERUMO Co., Tokyo, Japan).
After plasma and buffy coat were removed by centrifugation (15 min, 2500×g, 3 times), the erythrocytes were re-suspended in cold PBS.
This Example was approved by ethical committee of the University of Tokyo (KE17-13). Human red blood cells (RBC) were isolated from whole blood of a type-B donor and suspended in phosphate-buffered saline (PBS). A cell pellet of RBCs (5×10^7 cells) was incubated with PEG-phospholipid (20 μl, 2 mg/ml in PBS) or PBS (50 μl, as control) for 30 min at room temperature (RT, 20-25° C.) with gentle mixing. After wash with PBS by centrifugation (120×g, 4° C., 1 min) twice, Alexa488-labeled anti-blood group B antigen antibody (10 μl, used without dilution, Blood Group B antigen antibody [HEB-29], GeneTex) or PBS (10 μl) was mixed with the treated RBCs for 10 min at RT. After washing with PBS by centrifugation (120×g, 4° C., 1 min), RBC were re-suspended with PBS (1 ml) for flow cytometry measurements. […] Post analysis processing was carried out in FlowJo (BD).

collectin-11 (CL-11) = experiment: Binding of lectin pathway recognition molecule to coated HUVEC after plasma exposure, flow cytometry; type: cell-based; conditions: 0.5 mg/ml, after human plasma exposure
Method: (§1) Post analysis processing was carried out in FlowJo.

[1] = Vascular and tubular distribution and detachment of PEG-phospholipid in vivo (transplanted pig kidney)
Method: Full information on donor and recipient pigs is given in Example 5. […] Four recipient pigs were transplanted with biotin-PEG-phospholipid-treated kidneys. Their native kidneys were not removed and remained in the animals throughout the study. The four recipient pigs were euthanized after 12, 24, 48 and 72 h, respectively and biopsies were taken at euthanasia from the biotin-PEG-phospholipid treated kidney and one of the native kidneys. Frozen sections (4 μm thickness) were incubated in Alexa488-streptavidin (GE Healthcare, 1:500) at RT for 10 min. The sections were analyzed by laser-scanning confocal microscopy (LSM510, META, Carl Zeiss, Germany).
Frozen sections (4 μm thickness) of kidneys treated with biotin-PEG-phospholipid and control kidneys were incubated in Alexa488-streptavidin (GE Healthcare, 1:500) at RT for 10 min. The sections were analyzed by laser-scanning confocal microscopy (LSM510, META, Carl Zeiss, Germany).

RBCs = experiment: Complement mediated lysis of RBCs coated with PEG-phospholipid; type: cell-based, human; conditions: ABO missmatched donors, vs non-treated controls, 37° C. 20 min
Method: (§2) In order to investigate if the PEG-phospholipid was able to protect against complement mediated lysis, RBCs were used from 13 different donors who were typed for Rh complex and ABO antigens. RBCs were isolated and preincubated with PEG-phospholipid at varying concentrations, free PEG or PBS as described above. Cells were then washed (and the supernatant stored for analysis) with PBS (800 g×5 min, RT) and incubated with human serum (where the complement system is active) for 20 minutes at 37° C. They were then spun down again (800 g×5 min) and the supernatant was collected for analysis of hemolysis. The RBCs were analyzed for complement fixation (cells were incubated for 10 min with a
(§3) FITC-labelled anti-C3c antibody). RBCs were resuspended with PBS (1 mL) for flow cytometry measurements. […] Post analysis processing was carried out in FlowJo (BD). The supernatant was analyzed on a variable wavelength detection plate reader, Synergy HTX, for the absorbance at 540 nm. RBCs, which were lysed via osmotic stress, were run in parallel as positive controls. The background absorbance at 540 nm from PBS containing no cells was subtracted and the difference in absorbance between cells coated with PEG-phospholipid or PBS was then calculated.

[2] = test system: HLA-ABC (antibody G46-2.6); experiment: Anti-HLA antibody binding to PEG-phospholipid treated PBMCs, flow cytometry; type: cell-based; conditions: freshly isolated human PBMC
Description: (§4) To test the efficacy of the PEG-phospholipid (SUNBRIGHT®) PP-050CN, N-(methylpolyoxyethylene oxycarbonyl)-1,2-dipalmitoyl-sn-glycero-3-phosphoethanolamine, sodium salt, NOF Corp., Japan) to block binding of anti-HLA antibodies to HLA antigens, similar to in a potential clinical setting, we used human PBMCs from healthy donors to block the HLA antigens.
(§5) • FITC Mouse Anti-Human HLA-ABC; Monoclonal (G46-2.6) (BD Pharmingen) cat no. 555552 • Biotin Mouse Anti-human HLA Class I antibody [W6/32] (Abcam) cat no. ab110665 • PE-streptavidin (BD Pharmingen) cat no. 554061
(§6) PBMC was isolated from whole blood by using Cytiva™ Ficoll-Paque™ PLUS Media (Cytiva 17-1440-02) following standard protocol. In brief, whole blood was diluted in equal volume of PBS and carefully layered on top of Ficoll paque and centrifuged at 800×g for 25 mins. A cloudy layer was separated from the top of Ficoll and washed twice again with PBS.
(§7) The cells were stained with FITC mouse anti-human HLA-ABC monoclonal antibodies and biotin mouse anti-human HLA class | antibody [W6/32] (Abcam) followed by PE-streptavidin. The stained cells were analyzed by Beckman coulter cytoflex S (Biovis, facility, IGP, Rudbeck laboratory).

[3] = test system: HLA Class I (antibody W6/32); experiment: as above; type: cell-based; conditions: freshly isolated human PBMC
Description: as §4, §5, §6, §7

red blood cells = experiment: Cell lysis of red blood cells caused by PEG-phospholipid coating; type: cell-based; conditions: at the levels able to efficiently mask surface antigens on red blood cells
Method: as §2, §3

[4] = test system: mannan binding lectin (MBL); experiment: Binding of lectin pathway recognition molecule to coated HUVEC after serum exposure, flow cytometry; type: cell-based, human; conditions: 0.5 mg/ml
Method: as §1

## N-(methylpolyoxyethylene oxycarbonyl)-1,2-dipalmitoyl-sn-glycero-3-phosphoethanolamine [PEG-phospholipid]
Blood group B antigen
  binding capacity of anti-blood group B antigen-antibody: effectively reduced; also recorded: effective masking
collectin-11 (CL-11)
  binding of CL-11: substantially reduced
[1]; pig kidney, biotin-labeled PEG-phospholipid, 95% confidence interval 8-26
  t½ of PEG-phospholipid calculated from fluorescence images: 14 h
[1]; reliably detected only after 1 hour
  systemic leakage of PEG-phospholipid (autologous kidneys of the recipient): very low
RBCs
  complement-mediated RBC lysis: reduced complement-mediated RBC lysis in a dose dependent manner
[2]
  binding of anti-HLA-ABC G46-2.6 to PBMCs: robust inhibition
[2]; listed as PEG-phospholipids
  binding of anti-HLA-ABC G46-2.6 to PBMCs: inhibited
[3]
  binding of anti-HLA class I antibodies W6/32 to PBMCs: robust inhibition
[3]; listed as PEG-phospholipids
  binding of anti-HLA class I antibodies W6/32 to PBMCs: inhibited
Red blood cells
  cell lysis caused by the PEG-phospholipid molecules: did not cause any cell lysis
[4]
  decrease of MBL binding from human serum: 25-30%
